According to ChEMBL document CHEMBL6182853, “Design, synthesis, and biological evaluation of hypoxic-activation prodrug TH-302 derivatives” (Bioorg Med Chem Lett, 2025):
pIC50: −log10 of the molar value.

Experiments:
U-87 MG [1] = experiment: Antiproliferative activity against human U-87 MG cells assessed as suppression ratio at 5 uM by enzyme-linked immunosorbent assay relative to control; type: functional, U-87MG ATCC
U-87 MG [2] = experiment: Antiproliferative activity against human U-87 MG cells assessed as suppression ratio at 50 uM by enzyme-linked immunosorbent assay relative to control; type: functional, U-87MG ATCC
SK-OV-3 [3] = experiment: Antiproliferative activity against human SK-OV-3 cells assessed as suppression ratio at 5 uM by enzyme-linked immunosorbent assay relative to control; type: functional
SK-OV-3 [4] = experiment: Antiproliferative activity against human SK-OV-3 cells assessed as suppression ratio at 50 uM by enzyme-linked immunosorbent assay relative to control; type: functional
SK-OV-3 [5] = experiment: Anti-tumor activity against human SK-OV-3 cells assessed as inhibition rate at 140 uM by CCK-8 assay relative to control; type: functional
U-87 MG [6] = experiment: Anti-tumor activity against human U87 MG cells assessed as inhibition rate at 140 uM by CCK-8 assay relative to control; type: functional, U-87MG ATCC
U-87 MG [7] = experiment: Anti-tumor activity against human U87 MG cells by CCK-8 assay; type: functional, cell-based, U-87MG ATCC
SK-OV-3 [8] = experiment: Anti-tumor activity against human SK-OV-3 cells by CCK-8 assay; type: functional, cell-based

CCn1cnc([N+](=O)[O-])c1COP(=O)(NCCCl)NCCCl
inhibition at 5 µM (U-87 MG [1]): 1%
inhibition at 50 µM (U-87 MG [2]): 11%
inhibition at 5 µM (SK-OV-3 [3]): -16%
inhibition at 50 µM (SK-OV-3 [4]): -2%

Cn1cnc([N+](=O)[O-])c1COP(=O)(NCCCl)NCCCl
inhibition at 5 µM (U-87 MG [1]): 13%
inhibition at 50 µM (U-87 MG [2]): 22%
inhibition at 5 µM (SK-OV-3 [3]): -38%
inhibition at 50 µM (SK-OV-3 [4]): 4%

CCCn1cnc([N+](=O)[O-])c1COP(=O)(NCCCl)NCCCl
inhibition at 5 µM (U-87 MG [1]): 5%
inhibition at 50 µM (U-87 MG [2]): 15%
inhibition at 5 µM (SK-OV-3 [3]): -5%
inhibition at 50 µM (SK-OV-3 [4]): 8%

CC(C)n1cc(COP(=O)(NCCBr)NCCBr)nc1[N+](=O)[O-]
inhibition at 140 µM (SK-OV-3 [5]): 90%
inhibition at 140 µM (U-87 MG [6]): 90%
inhibition at 5 µM (U-87 MG [1]): 30%
pIC50 (U-87 MG [7]): 4.39
inhibition at 50 µM (U-87 MG [2]): 68%
inhibition at 5 µM (SK-OV-3 [3]): -16%
inhibition at 50 µM (SK-OV-3 [4]): 68%
pIC50 (SK-OV-3 [8]): 4.49

CCn1cc(COP(=O)(NCCBr)NCCBr)nc1[N+](=O)[O-]
inhibition at 5 µM (U-87 MG [1]): 25%
inhibition at 50 µM (U-87 MG [2]): 43%
inhibition at 5 µM (SK-OV-3 [3]): -3%
inhibition at 50 µM (SK-OV-3 [4]): 32%

CC(C)n1cnc([N+](=O)[O-])c1COP(=O)(NCCCl)NCCCl
inhibition at 5 µM (U-87 MG [1]): 12%
inhibition at 50 µM (U-87 MG [2]): 10%
inhibition at 5 µM (SK-OV-3 [3]): 11%
inhibition at 50 µM (SK-OV-3 [4]): 16%

CCn1cnc([N+](=O)[O-])c1COP(=O)(NCCBr)NCCBr
inhibition at 5 µM (U-87 MG [1]): -3%
inhibition at 50 µM (U-87 MG [2]): 39%
inhibition at 5 µM (SK-OV-3 [3]): -11%
inhibition at 50 µM (SK-OV-3 [4]): 59%

CCn1c(COP(=O)(NCCBr)NCCBr)cnc1[N+](=O)[O-]
inhibition at 5 µM (U-87 MG [1]): 25%
inhibition at 50 µM (U-87 MG [2]): 31%
inhibition at 5 µM (SK-OV-3 [3]): -13%
inhibition at 50 µM (SK-OV-3 [4]): 20%

Cn1cnc([N+](=O)[O-])c1COP(=O)(NCCBr)NCCBr
inhibition at 5 µM (U-87 MG [1]): 17%
pIC50 (U-87 MG [7]): 4.01
inhibition at 50 µM (U-87 MG [2]): 55%
inhibition at 5 µM (SK-OV-3 [3]): -4%
inhibition at 50 µM (SK-OV-3 [4]): 66%
pIC50 (SK-OV-3 [8]): 4.13

CCCn1cnc([N+](=O)[O-])c1COP(=O)(NCCBr)NCCBr
inhibition at 5 µM (U-87 MG [1]): -3%
inhibition at 50 µM (U-87 MG [2]): 45%
inhibition at 5 µM (SK-OV-3 [3]): 3%
inhibition at 50 µM (SK-OV-3 [4]): 52%

CCCn1cc(COP(=O)(NCCBr)NCCBr)nc1[N+](=O)[O-]
inhibition at 5 µM (U-87 MG [1]): 21%
inhibition at 50 µM (U-87 MG [2]): 35%
inhibition at 5 µM (SK-OV-3 [3]): -32%
inhibition at 50 µM (SK-OV-3 [4]): 20%

CC(C)n1c(COP(=O)(NCCBr)NCCBr)cnc1[N+](=O)[O-]
inhibition at 5 µM (U-87 MG [1]): 24%
inhibition at 50 µM (U-87 MG [2]): 23%
inhibition at 5 µM (SK-OV-3 [3]): -15%
inhibition at 50 µM (SK-OV-3 [4]): 10%

CC(C)n1cnc([N+](=O)[O-])c1COP(=O)(NCCBr)NCCBr
inhibition at 5 µM (U-87 MG [1]): 16%
inhibition at 50 µM (U-87 MG [2]): 47%
inhibition at 5 µM (SK-OV-3 [3]): 4%
inhibition at 50 µM (SK-OV-3 [4]): 41%

Cn1cc(COP(=O)(NCCBr)NCCBr)nc1[N+](=O)[O-]
inhibition at 5 µM (U-87 MG [1]): 16%
inhibition at 50 µM (U-87 MG [2]): 32%
inhibition at 5 µM (SK-OV-3 [3]): -14%
inhibition at 50 µM (SK-OV-3 [4]): 48%

CCCn1c(COP(=O)(NCCBr)NCCBr)cnc1[N+](=O)[O-]
inhibition at 140 µM (SK-OV-3 [5]): 90%
inhibition at 140 µM (U-87 MG [6]): 90%
inhibition at 5 µM (U-87 MG [1]): 30%
pIC50 (U-87 MG [7]): 4.33
inhibition at 50 µM (U-87 MG [2]): 69%
inhibition at 5 µM (SK-OV-3 [3]): -2%
inhibition at 50 µM (SK-OV-3 [4]): 77%
pIC50 (SK-OV-3 [8]): 4.38

Cn1c(COP(=O)(NCCBr)NCCBr)cnc1[N+](=O)[O-] [EVOFOSFAMIDE]
inhibition at 5 µM (U-87 MG [1]): 9%
pIC50 (U-87 MG [7]): 4.21
inhibition at 50 µM (U-87 MG [2]): 68%
inhibition at 5 µM (SK-OV-3 [3]): 10%
inhibition at 50 µM (SK-OV-3 [4]): 65%
pIC50 (SK-OV-3 [8]): 4.21
